Measured values published in patent US20230322770A1, “SUBSTITUTED HETEROARYL COMPOUNDS USEFUL AS INHIBITORS OF TLR9” (BRISTOL-MYERS SQUIBB COMPANY, priority 2020, published 2023).

Legend:
Assay type in all cases: cell-based
human TLR9 = target: T1, human TLR9 (Homo sapiens, UniProt Q9NR96); assay: TLR9 inhibition reporter assay (HEK-Blue cells, SEAP reporter); conditions: HEK-Blue cells overexpressing human TLR9; stimulated with ODN2006 5 nM; SEAP after 22 hour incubation
T1 construct: host or cells: HEK-Blue cells (HEK293-derived reporter line)
T1 sequence (Q9NR96 26-1032): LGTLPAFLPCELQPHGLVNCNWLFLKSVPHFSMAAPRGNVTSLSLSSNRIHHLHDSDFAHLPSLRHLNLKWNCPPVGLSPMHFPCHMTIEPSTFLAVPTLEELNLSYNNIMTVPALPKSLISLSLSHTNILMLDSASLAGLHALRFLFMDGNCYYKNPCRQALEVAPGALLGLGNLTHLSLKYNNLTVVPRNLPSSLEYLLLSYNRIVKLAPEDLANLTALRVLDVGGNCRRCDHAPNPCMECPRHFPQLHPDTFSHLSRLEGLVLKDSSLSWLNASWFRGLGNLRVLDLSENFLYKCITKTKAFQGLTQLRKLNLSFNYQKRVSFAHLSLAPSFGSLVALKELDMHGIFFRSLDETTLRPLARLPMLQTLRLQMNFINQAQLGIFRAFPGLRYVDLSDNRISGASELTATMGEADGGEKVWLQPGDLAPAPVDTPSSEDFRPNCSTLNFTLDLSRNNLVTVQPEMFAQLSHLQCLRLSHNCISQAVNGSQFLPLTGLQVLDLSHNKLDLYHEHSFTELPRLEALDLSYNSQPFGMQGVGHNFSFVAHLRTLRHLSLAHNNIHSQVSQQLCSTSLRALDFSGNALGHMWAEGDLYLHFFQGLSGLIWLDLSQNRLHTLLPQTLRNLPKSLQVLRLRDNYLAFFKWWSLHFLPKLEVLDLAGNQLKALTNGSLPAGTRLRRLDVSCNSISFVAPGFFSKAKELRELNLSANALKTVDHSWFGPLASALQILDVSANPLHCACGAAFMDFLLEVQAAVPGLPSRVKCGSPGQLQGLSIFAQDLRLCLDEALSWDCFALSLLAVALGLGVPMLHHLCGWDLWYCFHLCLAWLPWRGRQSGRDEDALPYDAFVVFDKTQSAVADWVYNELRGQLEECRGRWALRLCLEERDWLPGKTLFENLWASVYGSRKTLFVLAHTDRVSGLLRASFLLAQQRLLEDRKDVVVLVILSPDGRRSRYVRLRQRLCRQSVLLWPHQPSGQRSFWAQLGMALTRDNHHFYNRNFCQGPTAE
Protocol: (§1) TLR7/8/9 Inhibition Reporter Assays
(§2) HEK-Blue™-cells (Invivogen) overexpressing human TLR7, TLR8 or TLR9 receptors were used for screening inhibitors of these receptors using an inducible SEAP (secreted embryonic alkaline phosphatase) reporter gene under the control of the IFN-β minimal promoter fused to five NF-κB and AP-1-binding sites. Briefly, cells are seeded into Greiner 384 well plates (15000 cells per well for TLR7, 20,000 for TLR8 and 25,000 for TLR9) and then treated with test compounds in DMSO to yield a final dose response concentration range of 0.05 nM-50 μM. After a 30 minute compound pre-treatment at room temperature, the cells are then stimulated with a TLR7 ligand (gardiquimod at a final concentration of 7.5 μM), TLR8 ligand (R848 at a final concentration of 15.9 μM) or TLR9 ligand (ODN2006 at a final concentration of 5 nM) to activate NF-κB and AP-1 which induce the production of SEAP. After a 22 hour incubation at 37° C., 5% CO2, SEAP levels are determined with the addition of HEK-Blue™ Detection reagent (Invivogen), a cell culture medium that allows for detection of SEAP, according to manufacturer's specifications. The percent inhibition is determined as the % reduction in the HEK-Blue signal present in wells treated with agonist plus DMSO alone compared to wells treated with a known inhibitor.

human TLR7 = target: T2, human TLR7 (Homo sapiens, UniProt Q9NYK1); assay: TLR7 inhibition reporter assay (HEK-Blue cells, SEAP reporter); conditions: HEK-Blue cells overexpressing human TLR7; stimulated with gardiquimod 7.5 μM; SEAP after 22 hour incubation
T2 construct: host or cells: HEK-Blue cells (HEK293-derived reporter line)
T2 sequence (Q9NYK1 27-1049): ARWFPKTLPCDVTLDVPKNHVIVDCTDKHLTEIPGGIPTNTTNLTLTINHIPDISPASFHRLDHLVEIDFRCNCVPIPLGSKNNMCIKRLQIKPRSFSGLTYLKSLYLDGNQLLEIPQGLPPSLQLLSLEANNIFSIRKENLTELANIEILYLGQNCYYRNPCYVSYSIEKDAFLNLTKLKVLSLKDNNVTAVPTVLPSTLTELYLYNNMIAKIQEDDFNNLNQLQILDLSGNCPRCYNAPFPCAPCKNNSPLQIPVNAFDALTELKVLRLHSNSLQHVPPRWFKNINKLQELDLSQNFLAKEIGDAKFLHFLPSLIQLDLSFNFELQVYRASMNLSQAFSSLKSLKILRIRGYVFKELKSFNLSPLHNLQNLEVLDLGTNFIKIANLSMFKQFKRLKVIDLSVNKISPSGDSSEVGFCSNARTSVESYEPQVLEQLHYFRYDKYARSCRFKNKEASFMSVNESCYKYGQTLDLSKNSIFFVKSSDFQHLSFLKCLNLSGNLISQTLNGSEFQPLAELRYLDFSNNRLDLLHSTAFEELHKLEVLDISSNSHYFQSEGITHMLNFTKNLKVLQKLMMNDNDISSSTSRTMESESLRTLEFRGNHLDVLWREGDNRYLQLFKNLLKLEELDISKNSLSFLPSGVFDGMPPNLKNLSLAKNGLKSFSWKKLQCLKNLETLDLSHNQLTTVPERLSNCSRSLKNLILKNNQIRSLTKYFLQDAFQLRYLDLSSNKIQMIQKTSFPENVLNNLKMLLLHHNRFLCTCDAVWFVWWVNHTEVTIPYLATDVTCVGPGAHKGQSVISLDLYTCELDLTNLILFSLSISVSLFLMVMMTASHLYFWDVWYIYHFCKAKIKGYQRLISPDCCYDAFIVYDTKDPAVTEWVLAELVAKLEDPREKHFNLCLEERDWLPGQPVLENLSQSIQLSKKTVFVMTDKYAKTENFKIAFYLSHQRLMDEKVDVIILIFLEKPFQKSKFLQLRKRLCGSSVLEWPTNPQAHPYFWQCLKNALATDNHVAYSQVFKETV
Protocol: as §1, §2

human TLR8 = target: T3, human TLR8 (Homo sapiens, UniProt Q9NR97); assay: TLR8 inhibition reporter assay (HEK-Blue cells, SEAP reporter); conditions: HEK-Blue cells overexpressing human TLR8; stimulated with R848 15.9 μM; SEAP after 22 hour incubation
T3 construct: host or cells: HEK-Blue cells (HEK293-derived reporter line)
T3 sequence (Q9NR97 27-1041): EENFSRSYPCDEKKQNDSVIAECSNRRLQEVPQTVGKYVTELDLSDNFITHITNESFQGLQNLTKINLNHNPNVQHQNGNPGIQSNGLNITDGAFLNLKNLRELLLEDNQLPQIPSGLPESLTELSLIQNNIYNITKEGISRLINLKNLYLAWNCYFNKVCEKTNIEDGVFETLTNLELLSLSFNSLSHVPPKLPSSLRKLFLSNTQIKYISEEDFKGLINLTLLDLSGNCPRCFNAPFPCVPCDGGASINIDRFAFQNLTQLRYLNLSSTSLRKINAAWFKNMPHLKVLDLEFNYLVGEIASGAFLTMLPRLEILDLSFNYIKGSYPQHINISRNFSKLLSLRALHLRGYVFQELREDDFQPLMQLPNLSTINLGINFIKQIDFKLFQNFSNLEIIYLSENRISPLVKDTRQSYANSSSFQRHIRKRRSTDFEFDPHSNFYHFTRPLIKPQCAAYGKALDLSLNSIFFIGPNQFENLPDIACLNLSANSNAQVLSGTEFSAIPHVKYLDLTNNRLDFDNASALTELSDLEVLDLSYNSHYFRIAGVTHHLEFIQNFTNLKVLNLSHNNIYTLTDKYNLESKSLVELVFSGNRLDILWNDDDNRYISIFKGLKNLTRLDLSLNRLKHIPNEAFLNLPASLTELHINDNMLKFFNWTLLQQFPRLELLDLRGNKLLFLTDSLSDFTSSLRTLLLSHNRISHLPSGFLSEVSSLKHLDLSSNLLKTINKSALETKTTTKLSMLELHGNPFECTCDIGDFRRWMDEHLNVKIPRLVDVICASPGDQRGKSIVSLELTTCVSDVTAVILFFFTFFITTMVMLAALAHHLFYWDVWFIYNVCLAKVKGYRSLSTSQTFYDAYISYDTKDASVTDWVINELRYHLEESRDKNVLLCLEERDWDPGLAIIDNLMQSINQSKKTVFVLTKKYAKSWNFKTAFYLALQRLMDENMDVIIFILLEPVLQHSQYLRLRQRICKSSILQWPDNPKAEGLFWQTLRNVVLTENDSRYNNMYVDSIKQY
Protocol: as §1, §2

## CC(C)CN1CCN(c2ccc(-c3cnc4cc(-c5ccc(S(C)(=O)=O)cc5)n(C)c4c3)cc2)CC1 [Example 6, 6-(4-(4-Isobutylpiperazin-1-yl)phenyl)-1-methyl-2-(4-(methylsulfonyl)phenyl)-1H-pyrrolo[3,2-b]pyridine]
Human TLR9
  IC50: 0.139 µM

## COc1ccc(-c2cc3ncc(-c4ccc(N5CCN(CCC(C)(C)O)CC5)cc4)cc3n2C)cc1OC [Example 12, 4-(4-(4-(2-(3,4-dimethoxyphenyl)-1-methyl-1H-pyrrolo[3,2-b]pyridin-6-yl)phenyl)piperazin-1-yl)-2-methylbutan-2-ol]
Human TLR7
  IC50: 4.8 µM
Human TLR8
  IC50: 1.3 µM

## COc1ccc(-c2cc3ncc(-c4ccc(C(=O)N5CCN(C(C)C)CC5)cc4)cc3n2C)cc1OC [Example 5, (4-(2-(3,4-Dimethoxyphenyl)-1-methyl-1H-pyrrolo[3,2-b]pyridin-6-yl)phenyl)(4-isopropylpiperazin-1-yl)methanone]
Human TLR7
  IC50: 7.2 µM
Human TLR8
  IC50: 10.2 µM

## COc1ccc(-c2cc3ncc(-c4ccc(N5CCNCC5)cc4)cc3n2C)cc1OC [Example 13, 2-(3,4-dimethoxyphenyl)-1-methyl-6-(4-(piperazin-1-yl)phenyl)-1H-pyrrolo[3,2-b] pyridine]
Human TLR7
  IC50: 3 µM
Human TLR8
  IC50: 3.6 µM

## Cn1c(-c2ccc(S(C)(=O)=O)cc2)cc2ncc(-c3ccc(N4CCN(CC(C)(C)O)CC4)cc3)cc21 [Example 15, 2-methyl-1-(4-(4-(1-methyl-2-(4-(methylsulfonyl)phenyl)-1H-pyrrolo[3,2-b]pyridin-6-yl)phenyl)piperazin-1-yl)propan-2-ol]
Human TLR7
  IC50: ≥ 50 µM
Human TLR8
  IC50: 11.2 µM

## Cn1c(-c2ccc(S(C)(=O)=O)cc2)cc2ncc(-c3ccc(N4CCN(CCC(C)(C)O)CC4)cc3)cc21 [Example 16, -methyl-4-(4-(4-(1-methyl-2-(4-(methylsulfonyl)phenyl)-1H-pyrrolo[3,2-b]pyridin-6-yl)phenyl)piperazin-1-yl)butan-2-ol]
Human TLR7
  IC50: 8.7 µM
Human TLR8
  IC50: 4.7 µM

## COc1ccc(-c2cc3ncc(-c4ccc(N5CCN(CC(C)(C)O)CC5)cc4)cc3n2C)cc1OC [Example 4, 1-(4-(4-(2-(3,4-Dimethoxyphenyl)-1-methyl-1H-pyrrolo[3,2-b]pyridin-6-yl)phenyl)piperazin-1-yl)-2-methylpropan-2-ol]
Human TLR9
  IC50: 0.256 µM

## Cn1c(-c2ccc(S(C)(=O)=O)cc2F)cc2ncc(-c3ccc(N4CCN(C5CC5)CC4)cc3)cc21 [Example 45]
Human TLR9
  IC50: > 50 µM

## CC(C)CN1CCN(c2ccc(-c3cnc4cc(-c5ccc(S(C)(=O)=O)cc5)[nH]c4c3)cc2)CC1 [Example 14, 6-(4-(4-isobutylpiperazin-1-yl)phenyl)-2-(4-(methylsulfonyl)phenyl)-1H-pyrrolo[3,2-b]pyridine]
Human TLR7
  IC50: 29.6 µM
Human TLR8
  IC50: > 50 µM

## Cn1c(-c2ccc(S(C)(=O)=O)cc2)cc2ncc(-c3ccc(N4CCN5CCCC5C4)cc3)cc21 (stereo not shown) [Example 27]
Human TLR9
  IC50: 0.275 µM

## CC(C)N1C2CCC1CN(c1ccc(-c3cnc4cc(-c5ccc(S(C)(=O)=O)cc5)n(C)c4c3)cc1)C2 [Example 26]
Human TLR9
  IC50: 0.094 µM

## CC(C)N1CCN(c2ccc(-c3cnc4cc(-c5ccc(S(C)(=O)=O)cc5)[nH]c4c3)cc2)CC1 [Example 11, 6-(4-(4-isopropylpiperazin-1-yl)phenyl)-2-(4-(methylsulfonyl)phenyl)-1H-pyrrolo[3,2-b]pyridine]
Human TLR7
  IC50: 1.9 µM
Human TLR8
  IC50: > 50 µM

## COc1ccc(-c2cc3ncc(-c4ccc(N5CCN(C(C)C)CC5)cc4)cc3n2C)cc1F [Example 10, 2-(3-fluoro-4-methoxyphenyl)-6-(4-(4-isopropylpiperazin-1-yl)phenyl)-1-methyl-1H-pyrrolo[3,2-b]pyridine]
Human TLR7
  IC50: 15.5 µM
Human TLR8
  IC50: 41.7 µM

## COc1ccc(-c2cc3ncc(-c4ccc(N5CCN(CC6CC6)CC5)cc4)cc3n2C)cc1OC [Example 8, 6-(4-(4-(cyclopropylmethyl)piperazin-1-yl)phenyl)-2-(3,4-dimethoxyphenyl)-1-methyl-1H-pyrrolo[3,2-b]pyridine]
Human TLR7
  IC50: 14.4 µM
Human TLR8
  IC50: 5.6 µM

## COc1ccc(-c2cc3ncc(-c4ccc(N5CCN(C(C)C)CC5)nc4)cc3n2C)cc1OC [Example 9, 2-(3,4-dimethoxyphenyl)-6-(6-(4-isopropylpiperazin-1-yl)pyridin-3-yl)-1-methyl-1H-pyrrolo[3,2-b]pyridine]
Human TLR7
  IC50: 4.7 µM
Human TLR8
  IC50: 8.7 µM
